Values of other authors as cited in patent US10016426B2, “Pharmaceutical compositions for substituted quinazolinones” (Resverlogix Corp., priority 2011, dated 2018).

Tests used:
[1] = system: HDL-C level; settings: subjects with low HDL-C; Rubins et al. (1999)
[2] = following oral administration; Gugler et al. (1975)

| intestinal absorption [2] | Structure (SMILES) | increase in the HDL-C level [1] | reduction of the CHD risk [1] |
| --- | --- | --- | --- |
|  | Cc1ccc(C)c(OCCCC(C)(C)C(=O)O)c1 [gemfibrozil] | 6% | 22% |
| less than 1% | O=c1c(O)c(-c2ccc(O)c(O)c2)oc2cc(O)cc(O)c12 [quercetin] |  |  |
